Source: publication PMC6506705 (2019)

Experiments:
[1] = test system: EA#14.3K31 non-labelled (DNA, aptamer) ATTCAATTTGAGGCGGGTGGGTGGGTTGAAT; assay: dye fluorescence melting profile, qualitative; details: 100 mM NaCl; 20 mM TRIS, 0.02% Tween 20, pH 7.6; 10x dye; 0.5-4 μM aptamer
[2] = test system: EA#14.3K42 non-labelled (DNA, aptamer) ATACCAGCTTATTCAATTTGAGGCGGGTGGGTGGGTTGAATA; assay: dye fluorescence melting profile, qualitative; details: 100 mM NaCl; 20 mM TRIS, 0.02% Tween 20, pH 7.6; 10x dye; 0.5-4 μM aptamer

- binding [1]: yes
- binding [2]: yes
Compound: CCCN(CCCN(C)C)c1cc(C=C2Sc3ccccc3N2C)c2ccccc2[n+]1-c1ccccc1
